Experimental data from PubChem BioAssay AID1996.
≈ marks a conversion by molar mass, not a printed value.

Conditions: buffer; pH 7.4; 200.0 µM

Row | solubility kinetic [µg/mL] | Structure (SMILES)
1 | > 50 | O=C(c1cc(=O)[nH]c2ccccc12)N1CCN(c2ccccc2)CC1
2 | 47.3 (≈ 150 µM) | COc1cccc(CC(=O)NCCCSc2ccccc2)c1
3 | 0.4 (≈ 0.989 µM) | CC(=O)Nc1ccc(S(=O)(=O)N2CCN(c3ccc([N+](=O)[O-])cc3)CC2)cc1
4 | 2.4 (≈ 7.71 µM) | CCn1cc(C(=O)NCc2ccco2)c(=O)c2ccc(C)nc21
5 | 46.8 (≈ 138 µM) | Cc1cccn2c(=O)cc(COC(=O)C(C)Oc3ccccc3)nc12 (stereo unspecified)
6 | > 40.4 | O=S(=O)(Nc1cccc(CO)c1)c1cccs1
7 | > 52 | COc1ccc(CNCC(O)COc2ccc(C)cc2[N+](=O)[O-])cc1 (stereo unspecified)
8 | 34.8 (≈ 120 µM) | O=[N+]([O-])c1ccc(C(O)C23CN4CN(CN(C4)C2)C3)cc1 (stereo unspecified)
9 | 0.8 (≈ 2.44 µM) | O=C1COc2ccc(C(=O)COc3ccc([N+](=O)[O-])cc3)cc2N1
10 | 4.9 (≈ 14.8 µM) | COc1cc(C)c(C)cc1S(=O)(=O)N1CCCc2ccccc21
11 | > 45.2 | COc1cccc(C(=O)O/N=C(\N)c2ccccn2)c1OC
12 | 44.4 (≈ 142 µM) | O=C(O)CSc1nc2ccc(C(=O)c3ccccc3)cc2[nH]1
13 | 3.8 (≈ 12.9 µM) | NC(=O)COc1ccc2cc(-c3ccccc3)c(=O)oc2c1
14 | 54.2 (≈ 147 µM) | O=C(CN1C(=O)NC2(CCc3ccccc32)C1=O)Nc1cccc(Cl)c1 (stereo unspecified)
15 | 4.2 (≈ 13 µM) | Cc1ccc(NC(=O)CCc2ccc(C)o2)c(Br)c1
16 | 1.4 (≈ 5.05 µM) | COc1ccc(NC(=O)c2cccc3ccccc23)cc1
17 | 36.2 (≈ 112 µM) | N#C/C(=C\c1c(F)cccc1Cl)S(=O)(=O)c1ccccn1
18 | < 0.8 | COc1cccc(C(=O)COc2ccc(NC(=O)c3ccccc3)cc2)c1
19 | 6.3 (≈ 29 µM) | O=Cc1ccc(-c2cccc([N+](=O)[O-])c2)o1
20 | 13.4 (≈ 43.4 µM) | CC(C(=O)Nc1ccc(Cl)cc1)N(C)Cc1cccs1 (stereo unspecified)
21 | > 47.9 | CC(=O)Nc1ccc(S(=O)(=O)NC(C)c2ccncc2)cc1 (stereo unspecified)
22 | > 34.2 | Cc1cccc(C(=O)N/N=C/c2ccoc2)c1
23 | 43 (≈ 138 µM) | CC(C)(C)c1ccc(N2C(=O)CSC2c2cccnc2)cc1 (stereo unspecified)
24 | > 44.2 | CC12CCC(=O)N1C(C(=O)Nc1ccc(F)cc1)CS2 (stereo unspecified)
25 | 1.2 (≈ 2.99 µM) | N/C(CCS(=O)(=O)c1ccc(Cl)cc1)=N\OC(=O)c1ccc(Cl)cc1
26 | 35 (≈ 111 µM) | COc1cccc(CNC(=O)CCCSc2ccccc2)c1
27 | 11.2 (≈ 34.9 µM) | COC(=O)c1ccc(C2C(C#N)=C(N)Oc3cc(N)ccc32)cc1 (stereo unspecified)
28 | 46.1 (≈ 133 µM) | O=C(NC1CCN(C(=O)Nc2cccc(Cl)c2)CC1)c1ccco1
29 | > 42.2 | Nc1oc2ccccc2c(=O)c1-c1ccc2c(c1)OCO2

The remaining lines, values behind:

Row | Structure (SMILES) | solubility kinetic [µg/mL]
30 | Cc1cc(C)cc(NC(=O)COC(=O)COc2ccc(N(C)S(=O)(=O)c3cccs3)cc2)c1 | 9.1 (≈ 18.6 µM)
31 | O=C(c1ccccc1NS(=O)(=O)c1ccccc1)N1CCCCCC1 | > 53.8
32 | O=C(Nc1ccc(F)cc1)C1C2CCC3C(CCC21)C3(Cl)Cl (stereo unspecified) | 0.8 (≈ 2.34 µM)
33 | O=C(Nc1cc(C(F)(F)F)ccc1-n1cncn1)C1CC1 | > 44.4
34 | CS(=O)(=O)N1CCC(C(=O)Nc2ccc(C(N)=O)cc2)CC1 | 34.7 (≈ 107 µM)
35 | Cn1c(=O)c2cc3ccc(Cl)cc3nc2n(C)c1=O | 0.4 (≈ 1.45 µM)
36 | COc1cc2ccccc2cc1C(=O)N1CCCCC1 | > 40.4
37 | COc1cc(C(C)=O)ccc1OCC(=O)Nc1cc(C)on1 | 8.3 (≈ 27.3 µM)
38 | CC(=O)c1ccccc1NC(=O)CC1(CC(=O)O)CCCCC1 | > 47.6
39 | COc1ccc(OCC(O)CNC(=O)Nc2cc(F)ccc2C)cc1 (stereo unspecified) | 17.2 (≈ 49.4 µM)
40 | Cc1ccc(C(=O)NC(C)C2CC3CCC2C3)cc1 (stereo unspecified) | < 0.6
41 | COC1=C/C(=C/c2c(O)c(C#N)c3ccccn23)C=CC1=O | 17.5 (≈ 59.9 µM)
42 | O=C1COc2ccc(S(=O)(=O)N3CCCCCC3)cc2N1 | > 46.6
43 | O=C(CNS(=O)(=O)c1ccccc1)N1CCc2ccccc2C1 | > 49.6
44 | COc1ccc2nc(N/C(N)=N/S(C)(=O)=O)nc(C)c2c1 | 3.1 (≈ 10 µM)
45 | Cl.NC(=S)NC(c1ccccc1)c1ccncc1 (stereo unspecified) | 39.5

Row | Structure (SMILES) | solubility kinetic [µg/mL]
46 | Cc1ccc(C(=O)NCC(=O)N2CCCCCCC2)cc1 | 42.3 (≈ 147 µM)
47 | CCN(CC)CCN(C(=O)c1ccc2ccccc2c1)c1nc2ccc(OC)cc2s1.Cl | 14.2
48 | CN(Cc1ccccc1)C(=S)NC(=O)c1cccs1 | > 43.6
49 | CCC1(CC)Cc2ccccc2C(=O)N1 | > 30.5
50 | COc1ccc(NC(=O)Nc2c(SC)nsc2SC)cc1 | 1.8 (≈ 5.27 µM)
51 | Cl.c1ccc2c(N3CCOCC3)c3c(nc2c1)CCC3 | > 43.6
52 | O=C(CN1C(=O)C2CCCCC2C1=O)Nc1ccccc1C(=O)O (stereo unspecified) | > 49.6
53 | Cc1nccc(-c2sc(-c3cccs3)nc2C)n1 | 2.6 (≈ 9.51 µM)
54 | CC(C)(C)NCC(O)COc1cccc2[nH]c(=O)[nH]c12.Cl (stereo unspecified) | > 47.4
55 | Cc1ccc(OCCSc2nc3ccccc3n2CC(=O)O)cc1 | > 51.4
56 | CCCc1cc(=O)[nH]c(SCC(=O)c2c(N)n(C3CC3)c(=O)[nH]c2=O)n1 | 30.7 (≈ 81.3 µM)
57 | N#Cc1ccccc1OCC(=O)NCC(c1cccs1)N1CCOCC1 (stereo unspecified) | > 55.7
58 | O=C(/C=C/c1cccs1)Nc1nccs1 | 0.7 (≈ 2.96 µM)
59 | Cn1c(=O)c2ccccc2n(CC(=O)NC2CCCC2)c1=O | 40.2 (≈ 133 µM)
60 | CCSc1nc2ccc(C)cc2cc1C#N | < 0.2
61 | O=C(NCc1ccncc1)C(=O)NC1CC1 | > 32.9
